# Several values for one entry are separate records, joined by “and”; a condition that tells them apart may be missing. Identical values can stand only once.
# Key:
# [1] = test system: BRADC Brachiaria decumbens (Surinam grass); experiment: Ipfencarbazone biostimulant effect, early post emergence foliar application, greenhouse pots, plant height: Surinam grass; type: in vivo; conditions: for HEIGHT, percent of untreated check (APoC) / HEIGHT, treatment mean: BRADC BASILISK; for Plant HEIGHT, Mean / Plant HEIGHT, single plots: Surinam grass BASILISK
# Source text: (§1) The original objective of this Example was to evaluate the herbicidal effect of ipfencarbazone when applied as a post emergent treatment to a range of selected crops and weeds. Unexpectedly, crop plant growth stimulation was observed. The actual species of weeds and crops are listed in the summary data tabulated below and in FIGS. 1-13. By convention each plant species has a Bayer code (5-letter name) with the scientific name for the plant referenced in FIGS. 1-13. In each Figure, each tray contains the same configuration of weeds and/or crops. In each Figure there is one replication of each treatment (six treatments in total). The top three photographs in each Figure show the Bayer Codes and bottom three photographs are aligned with the top three facilitating viewing of the same plant species. Throughout the Examples various abbreviations as conventional shorthand notation and will be appreciated by those skilled in the art. Some exemplary abbreviations include, “CV”=Co-efficient of Variation,” “LSD”=Least Significant Difference” (G/L (gram per L) AND GA/L (gram of active ingredient per L); “SC”=suspension concentrate formulation. The diluent in all treatments was water. By convention factors that are identical in all treatments (e.g. diluent and surfactant) are not listed in each treatment.
# (§2) Methods: The indicated size pots (see Tables below) are filled with a specific soil, the soil properties being indicated below. The referenced crops and weeds are planted by hand in each pot. […] The experiments include six treatments each replicated three times on each crop/weed species. At a specific time after emergence each crop and weed species was treated with ipfencarbazone plus a non-ionic surfactant (NIS). In the present Example, the surfactant employed was ENERGIC™ (non-ionic surfactant). The application timing is indicated in each of the Tables (1 or 2 leaf stage) below. Ipfencarbazone plus surfactant was diluted in water and applied at a rate equivalent to about 250 L/ha. Ipfencarbazone was applied using a track sprayer. After treatment, the pots were randomized in a greenhouse. At each assessment (indicated by “days after treatment” or DAT) the height of each plant was measured. The letters next to each mean indicate the level of statistical significance.
# (§3) Replications: 3, Untreated treatments: 1, Design: Randomized Complete Block (RCB), Treatment units: Treated ‘Plot’ experimental unit size, Dry Form. Unit: %, Treated ‘Plot’ experimental unit size Width: 1 meter, Treated ‘Plot’ experimental unit size Length: 1.4 meters, Application volume: 250 L/ha, Mix size: 0.15 liters, […]
# [2] = test system: GOSHI Gossypium hirsutum (American upland cotton); experiment: Ipfencarbazone biostimulant effect, early post emergence foliar application, greenhouse pots, plant height: cotton; type: in vivo; conditions: for Plant HEIGHT, Mean / Plant HEIGHT, single plots: Cotton 975WS; for HEIGHT, percent of untreated check (APoC) / HEIGHT, treatment mean: GOSHI 975WS
# Source text: as §1, §2, §3
# [3] = 15 DA-A, 62.5 g ai/ha + Energic NIS 0.2 % v/v
# [4] = 15 DA-A, 125 g ai/ha + Energic NIS 0.2 % v/v
# [5] = 15 DA-A, 250 g ai/ha + Energic NIS 0.2 % v/v
# [6] = 15 DA-A, 500 g ai/ha + Energic NIS 0.2 % v/v
# [7] = 15 DA-A, 1000 g ai/ha + Energic NIS 0.2 % v/v
# [8] = 28 DA-A, 62.5 g ai/ha + Energic NIS 0.2 % v/v
# [9] = 28 DA-A, 125 g ai/ha + Energic NIS 0.2 % v/v
# [10] = 28 DA-A, 250 g ai/ha + Energic NIS 0.2 % v/v
# [11] = 28 DA-A, 500 g ai/ha + Energic NIS 0.2 % v/v
# [12] = 28 DA-A, 1000 g ai/ha + Energic NIS 0.2 % v/v
compound,measurement,setting,value
"CC(C)N(C(=O)n1cnn(-c2ccc(Cl)cc2Cl)c1=O)c1ccc(F)cc1F [ARY-0572-001, ipfencarbazone]","HEIGHT, percent of untreated check (APoC)","[1]; 62.5 g ai/ha, 15 DA-A",(167.8%)
same,"HEIGHT, treatment mean","[1]; 62.5 g ai/ha, 15 DA-A",33.8 a cm
same,"HEIGHT, percent of untreated check (APoC)","[1]; 62.5 g ai/ha, 28 DA-A",(164.1%)
same,"HEIGHT, treatment mean","[1]; 62.5 g ai/ha, 28 DA-A",55.4 bc cm
same,"HEIGHT, percent of untreated check (APoC)","[1]; 125 g ai/ha, 15 DA-A",(139.1%)
same,"HEIGHT, treatment mean","[1]; 125 g ai/ha, 15 DA-A",28.1 ab cm
same,"HEIGHT, percent of untreated check (APoC)","[1]; 125 g ai/ha, 28 DA-A",(146.7%)
same,"HEIGHT, treatment mean","[1]; 125 g ai/ha, 28 DA-A",49.6 cd cm
same,"HEIGHT, percent of untreated check (APoC)","[1]; 250 g ai/ha, 15 DA-A",(141.3%)
same,"HEIGHT, treatment mean","[1]; 250 g ai/ha, 15 DA-A",28.5 ab cm
same,"HEIGHT, percent of untreated check (APoC)","[1]; 250 g ai/ha, 28 DA-A",(233.6%)
same,"HEIGHT, treatment mean","[1]; 250 g ai/ha, 28 DA-A",78.9 a cm
same,"HEIGHT, percent of untreated check (APoC)","[1]; 500 g ai/ha, 15 DA-A",(93.1%)
same,"HEIGHT, treatment mean","[1]; 500 g ai/ha, 15 DA-A",18.8 bc cm
same,"HEIGHT, percent of untreated check (APoC)","[1]; 500 g ai/ha, 28 DA-A",(210.5%)
same,"HEIGHT, treatment mean","[1]; 500 g ai/ha, 28 DA-A",71.1 ab cm
same,"HEIGHT, percent of untreated check (APoC)","[1]; 1000 g ai/ha, 15 DA-A",(54.0%)
same,"HEIGHT, treatment mean","[1]; 1000 g ai/ha, 15 DA-A",10.9 c cm
same,"HEIGHT, percent of untreated check (APoC)","[1]; 1000 g ai/ha, 28 DA-A",(74.0%)
same,"HEIGHT, treatment mean","[1]; 1000 g ai/ha, 28 DA-A",25.0 e cm
same,"Plant HEIGHT, Mean",[1]; [3],33.8 cm
same,"Plant HEIGHT, single plots",[1]; [3],26.8 cm and 44.7 cm and 30.0 cm
same,"Plant HEIGHT, Mean",[1]; [4],28.1 cm
same,"Plant HEIGHT, single plots",[1]; [4],27.8 cm and 23.7 cm and 32.7 cm
same,"Plant HEIGHT, Mean",[1]; [5],28.5 cm
same,"Plant HEIGHT, Mean",[1]; [6],18.8 cm
same,"Plant HEIGHT, single plots",[1]; [6],21.3 cm and 13.7 cm
same,"Plant HEIGHT, Mean",[1]; [7],10.9 cm
same,"Plant HEIGHT, Mean",[1]; [8],55.4 cm
same,"Plant HEIGHT, single plots",[1]; [8],48.3 cm and 76.0 cm and 42.0 cm
same,"Plant HEIGHT, Mean",[1]; [9],49.6 cm
same,"Plant HEIGHT, single plots",[1]; [9],53.0 cm and 44.7 cm and 51.0 cm
same,"Plant HEIGHT, Mean",[1]; [10],78.9 cm
same,"Plant HEIGHT, single plots",[1]; [10],89.7 cm and 91.7 cm and 55.3 cm
same,"Plant HEIGHT, Mean",[1]; [11],71.1 cm
same,"Plant HEIGHT, single plots",[1]; [11],67.3 cm and 77.0 cm and 69.0 cm
same,"Plant HEIGHT, Mean",[1]; [12],25.0 cm
same,"Plant HEIGHT, Mean",[2]; [3],16.1 cm
same,"Plant HEIGHT, single plots",[2]; [3],19.2 cm and 13.7 cm and 15.3 cm
same,"Plant HEIGHT, Mean",[2]; [4],11.9 cm
same,"Plant HEIGHT, single plots",[2]; [4],9.7 cm and 12.0 cm and 14.0 cm
same,"Plant HEIGHT, Mean",[2]; [5],9.5 cm
same,"Plant HEIGHT, single plots",[2]; [5],9.3 cm and 9.2 cm and 10.0 cm
same,"Plant HEIGHT, Mean",[2]; [6],7.7 cm
same,"Plant HEIGHT, single plots",[2]; [6],9.2 cm and 6.3 cm and 7.7 cm
same,"Plant HEIGHT, Mean",[2]; [7],6.9 cm
same,"Plant HEIGHT, Mean",[2]; [8],24.9 cm
same,"Plant HEIGHT, single plots",[2]; [8],26.0 cm and 27.7 cm and 21.0 cm
same,"Plant HEIGHT, Mean",[2]; [9],17.7 cm
same,"Plant HEIGHT, single plots",[2]; [9],19.0 cm and 17.3 cm and 16.7 cm
same,"Plant HEIGHT, Mean",[2]; [10],15.8 cm
same,"Plant HEIGHT, Mean",[2]; [11],13.2 cm
same,"Plant HEIGHT, Mean",[2]; [12],8.9 cm
same,"HEIGHT, percent of untreated check (APoC)","[2]; 62.5 g ai/ha, 15 DA-A",(137.6%)
same,"HEIGHT, treatment mean","[2]; 62.5 g ai/ha, 15 DA-A",16.1 a cm
same,"HEIGHT, percent of untreated check (APoC)","[2]; 62.5 g ai/ha, 28 DA-A",(154.5%)
same,"HEIGHT, treatment mean","[2]; 62.5 g ai/ha, 28 DA-A",24.9 a cm
same,"HEIGHT, percent of untreated check (APoC)","[2]; 125 g ai/ha, 15 DA-A",(101.9%)
same,"HEIGHT, treatment mean","[2]; 125 g ai/ha, 15 DA-A",11.9 b cm
same,"HEIGHT, percent of untreated check (APoC)","[2]; 125 g ai/ha, 28 DA-A",(109.7%)
same,"HEIGHT, treatment mean","[2]; 125 g ai/ha, 28 DA-A",17.7 ab cm
same,"HEIGHT, percent of untreated check (APoC)","[2]; 250 g ai/ha, 15 DA-A",(81.4%)
same,"HEIGHT, treatment mean","[2]; 250 g ai/ha, 15 DA-A",9.5 bc cm
same,"HEIGHT, percent of untreated check (APoC)","[2]; 250 g ai/ha, 28 DA-A",(97.9%)
same,"HEIGHT, treatment mean","[2]; 250 g ai/ha, 28 DA-A",15.8 bc cm
same,"HEIGHT, percent of untreated check (APoC)","[2]; 500 g ai/ha, 15 DA-A",(66.2%)
same,"HEIGHT, treatment mean","[2]; 500 g ai/ha, 15 DA-A",7.7 c cm
same,"HEIGHT, percent of untreated check (APoC)","[2]; 500 g ai/ha, 28 DA-A",(82.1%)
same,"HEIGHT, treatment mean","[2]; 500 g ai/ha, 28 DA-A",13.2 bc cm
same,"HEIGHT, percent of untreated check (APoC)","[2]; 1000 g ai/ha, 15 DA-A",(59.5%)
same,"HEIGHT, treatment mean","[2]; 1000 g ai/ha, 15 DA-A",6.9 c cm
same,"HEIGHT, percent of untreated check (APoC)","[2]; 1000 g ai/ha, 28 DA-A",(55.2%)
same,"HEIGHT, treatment mean","[2]; 1000 g ai/ha, 28 DA-A",8.9 c cm
